Molecular target: polo-box domain (PBD) of human polo-like kinase 1 (Plk1) (Homo sapiens, UniProt P53350)
Experiment: ELISA-based PBD competition assay against p-T78 peptide of PBIP1
Type: binding

polo-box domain (PBD) of human polo-like kinase 1 (Plk1), sequence (P53350 367-603 limits assumed): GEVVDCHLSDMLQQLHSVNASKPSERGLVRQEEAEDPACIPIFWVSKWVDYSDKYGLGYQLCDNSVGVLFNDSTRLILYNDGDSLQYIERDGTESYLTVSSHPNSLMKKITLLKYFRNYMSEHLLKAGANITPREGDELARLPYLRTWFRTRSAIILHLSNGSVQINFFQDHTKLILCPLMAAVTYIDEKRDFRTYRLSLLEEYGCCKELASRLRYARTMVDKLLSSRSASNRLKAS

How did the Kd turn out when `O=c1c(O)cccc2cc(O)c(O)c(O)c12` [compound 2, Purpurogallin] was run?
Its Kd is roughly 2700 nM.
